From patent US20070225253A1, “Use of a trioxopyrimidine for the treatment and prevention of bronchial inflammatory diseases” (priority 2004, published 2007) come the findings set out here.

Assay [1] deals with allergen-induced airway inflammation. As to the kind of experiment: Mouse model of asthma (OVA), intraperitoneal injection of Compound I. It is filed as in vivo, mice. Particulars: 3.75 to 30 mg/kg. Here is the method: In order to study the modulation of airway inflammation by intraperitoneal injection of Compound I, mice were sensitized with 10 μg ovalbumin alumin-adsorbed (aluminject, perbio, Erembodegem, Belgium) injected intraperitonealy at days 0 and 7 and were subsequently exposed to OVA 1% or PBS aerosols for 30 minutes from day 21 to 24. Intraperitoneal injections were performed 30 min before OVA inhalations. The different injected formulations were: cremophor 10%-DMSO 10%-PBS 80%- Compound I30 mg/kg (suspension); cremophor 10%-DMSO 10%-PBS 80%- Compound I3.75 mg/kg (solution); HPβCD 200 mM Compound I 7.5 mg/kg (solution); HPβCD 200 mM. […]
Twenty-four hours after the last allergen exposure, the bronchial hyper responsiveness was determined by measuring the Penh using a barometric plethysmograph as proposed by Hamelmann, E., et al., Am. […] The Penh was measured at baseline and 5 min after the inhalation of increasing doses (25, 50, 75 and 100 mM) of methacholine (Mch).
Immediately after the assessment of airway responsiveness, mice were sacrificed and 1 ml of PBS free of ionised calcium and magnesium but supplemented with 0.05 mM sodium EDTA was instilled 4 times via a tracheal cannula and recovered by gentle manual aspiration. […] A value from 0 to 3 per criteria was adjudged to each tissue section scored. […]

The test system of assay [2] is allergen-induced airway inflammation and bronchial hyperresponsiveness. Put plainly: Mouse model of asthma (OVA), inhalation, short exposure challenge. Type of assay: in vivo, mice. Particulars: inhalation of 40 mg/ml solution in pure DMSO, short-term exposure, vs DMSO alone. Here is the method: In order to study the modulation of airway inflammation by intraperitoneal injection of Compound I, mice were sensitized with 10 μg ovalbumin alumin-adsorbed (aluminject, perbio, Erembodegem, Belgium) injected intraperitonealy at days 0 and 7 and were subsequently exposed to OVA 1% or PBS aerosols for 30 minutes from day 21 to 24. Intraperitoneal injections were performed 30 min before OVA inhalations. The different injected formulations were: cremophor 10%-DMSO 10%-PBS 80%- Compound I30 mg/kg (suspension); cremophor 10%-DMSO 10%-PBS 80%- Compound I3.75 mg/kg (solution); HPβCD 200 mM Compound I 7.5 mg/kg (solution); HPβCD 200 mM. All results were compared to mice sensitized and exposed to PBS and OVA treated with PBS injected intraperitonealy. In order to study the modulation of airway inflammation by inhaled Compound I, mice were sensitized as described previously. Two protocols referred to as short exposure challenge and long-term exposure challenge were used. In the short exposure challenge, mice were exposed to aerosols of Compound I-complex at concentrations of 0.03 and 0.3 mg/ml of active compound in aqueous solution of from day 21 to 27 during 30 min in a Plexiglas exposure chamber (30×20×15 cm). Mice were exposed to OVA aerosols 30 minutes after the Compound I inhalation from day 23 to 27. In the so called long-term inhalation challenge, mice were exposed to aerosols of Compound Iat concentrations of 0.03 and 0.3 mg/ml complexed with HPβCD in an aqueous solution during 30 min five days odd weeks and to OVA aerosols 3 days odd weeks for 11 weeks. No inhalations were performed during even weeks.
The aerosol were produced by using an ultrasonic nebuliser SYSTAM (Systeme Assistance Medical, Le Ledat, France), the vibration frequency of which is 2.4 MHz with variable vibration intensity and ventilation levels. Vibration intensity was fixed in position 6 and the ventilation level was 25(ν1/2)1/min.
Twenty-four hours after the last allergen exposure, the bronchial hyper responsiveness was determined by measuring the Penh using a barometric plethysmograph as proposed by Hamelmann, E., et al., Am. J Respir. Crit. Care Med. 156 (1997) 766-775). The Penh was measured at baseline and 5 min after the inhalation of increasing doses (25, 50, 75 and 100 mM) of methacholine (Mch).
Immediately after the assessment of airway responsiveness, mice were sacrificed and 1 ml of PBS free of ionised calcium and magnesium but supplemented with 0.05 mM sodium EDTA was instilled 4 times via a tracheal cannula and recovered by gentle manual aspiration. The recovered bronchoalveolar lavage fluid (BAL) was centrifuged (1800 rpm for 10 min at 4° C.). […] A value from 0 to 3 per criteria was adjudged to each tissue section scored. […]

Molecules are shown by their SMILES.

With `O=C1NC(=O)C(c2ccc(-c3ccccc3)cc2)(N2CCN(c3ccc([N+](=O)[O-])cc3)CC2)C(=O)N1` [Compound I, 5-Biphenyl-4-yl-5-[4-(4-nitro-phenyl)-piperazin-1-yl]pyrimidine-2,4,6-trione], the figures for the peribronchial inflammation scores result in assay [1] (equal efficacy of all tested formulations) and in assay [2] (p<0.01) were “significantly lowered” and “significant decrease”, respectively. Besides, in assay [1] (solution or precipitate, vs placebo), the “allergen-induced airway eosinophilic inflammation in BAL” value is listed as “lowered”. Also, in assay [2] (p<0.005), the BAL eosinophils result was “significant decrease”. Moreover, the bronchial hyperresponsiveness result in assay [2] (p<0.05) was “significant decrease”.
